Data taken from US10519131B2, “Benzazepine compounds, conjugates, and uses thereof” (SILVERBACK THERAPEUTICS, INC., priority 2017, dated 2019).

Key:
[1] = test system: Human peripheral blood mononuclear cells (PBMC); assay: PBMC screening assay, TNF-α in supernatant; assay type: cell-based; details: 24 hours, TNF-α in supernatant by ELISA or HTRF
Procedure: Human peripheral blood mononuclear cells (PBMC) were obtained from BenTek, frozen at 25×10^6 cell/mL in 10% DMSO (Sigma) prepared in fetal bovine serum (Gibco) and stored in liquid nitrogen. For culture PBMC were thawed quickly in a 37° C. water bath and diluted into pre-warmed RPMI 1640 (Lonza) supplemented with 10% fetal bovine serum, 2 mM glutamine, 50 μg/mL penicillin, 50 U/mL streptomycin (all from Gibco) and centrifuged for 5 minutes at 500×g. PBMC were suspended into the growth media described above and cultured at a concentration of 1×10^6 cells per mL at 37° C. in a 5% CO2 incubator.
PBMC were thawed, suspended at a concentration of 1×10^6 cell/mL in growth media and 200 μL was aliquoted into each well of a 96-well plate for a total of 0.2×10^6 cells per well. PBMC were incubated for 16-18 hours at 37° C. in a 5% CO2 humidified incubator. The following day PBMC plates were centrifuged at 500×g for 5 minutes and the growth media was removed. […] TNF-α activity was assessed in the supernatant by ELISA (eBioscience) or HTRF (CisBio) per the manufacturer's instructions. Optical density at 450 nm and 570 nm (ELISA) or luminescence (HTRF) was analyzed using an Envision (Perkin Elmer) plate reader, as shown in Table 5.

[2] = test system: human monocytes injected intratumorally; assay: Antigen dependent monocyte activation in a mouse tumor model; assay type: in vivo, NOD SCID mice; details: 5-20 mg/kg intravenously
Procedure: Human monocytes were prepared as described above. Trop2^+ MDA-MB-453 cells or Trop2-MiaPaca2 were cultured by standard methods. A TLR8 benzazepine linker payload (LP) was prepared by attaching a MCC (N-maleimidomethyl]cyclohexane-1-carboxylate) linker in place of the mc-vc-PABA linker in Compound-Linker 2.1 to form Compound-Linker 2.22. TROP2-TLR8 benzazepine conjugates were prepared by conjugation of Compound-Linker 2.22 to a TROP2 antibody (sacituzumab) to form a conjugate with an average DAR of about 4.
On Day 1 NOD SCID mice were injected with 5×10^5 Trop2^+ MDA-MB-453 cells or Trop2-MiaPaca2 cells. Seven to ten days later when the tumor size reached about 300 mm^3, the mice were injected intravenously with 5-20 mg/kg of the TROP2-TLR8 benzazepine conjugate or TROP2 antibody alone. Sixteen hours later, 10^6 human monocytes were injected intratumorally. Four to six hours later, the tumors were harvested and digested. Monocytes were identified by staining for cell surface markers and monocyte activation was determined by intracellular staining for IL-6.

Compound	EC50 [1] [nM]	human monocyte activation (intracellular staining for IL-6) ([2]; mice having a TROP2-tumor (MiaPaca2))	human monocyte activation (intracellular staining for IL-6) ([2]; mice having a TROP2^+ tumor (MDA-MB-453))
CCCN(CCC)C(=O)C1=Cc2ccc(C(=O)NC3C[C@@H]3c3ccccc3)cc2N=C(N)C1 (stereo partly shown) [Compound 1.28]	< 500	–	–
CCCN(CCC)C(=O)C1=Cc2ccc(C(=O)Nc3ccc4c(c3)CN(C(=O)OCc3ccccc3)CC4)cc2N=C(N)C1 [Compound 1.30]	< 500	–	–
control antibody: "TROP2 antibody alone" (sacituzumab) in Example 16; elsewhere the unconjugated parental aTROP2 or aHER2 antibody	–	did not cause human monocyte activation	did not cause human monocyte activation
